What all share (type): cell-based
The subject of data set [1] is wild type NL4-3 virus (HIV-1) in HeLa-p4 cells. Description: HeLa-p4 single-cycle HIV-1 infectivity, beta-galactosidase CPRG test. The following applies: Human immunodeficiency virus 1, NL43, HeLaP4, 48 hours after infection, control = NL4-3 virus alone; for activity at 50 µM: read-out: Hela-p4 CPRG 50 μM; for activity at 100 µM: read-out: Hela-p4 CPRG 100 μM. As for the experimental part:
(§1) HeLa-p4 cells are HeLa CD4 LTR-LacZ wherein LacZ expression is induced by the trans-activating protein Tat of HIV, making possible the precise quantification of HIV-1 infectivity from a single replication cycle. HeLa-CD4 cells growing exponentially at a density of 1×10^4/mL were placed in 96-well plates and infected the following day with 1 ng of HIV p24 antigen in the presence of different concentrations of compounds. The titles for a single cycle of the viruses were determined 48 hours after infection by quantifying the beta-galactosidase activity in lysates P4 by colorimetric test (CPRG, Promega) based on the cleavage of chlorophenol red-beta-D-galactopyranoside (CPRG) by beta-galactosidase. A cell viability assay measuring the absorbance at […] using the yellow tetrazolium reagent MTS [[…]] (Promega) was carried out.
(§2) For the helap4 cells experiments, the efficacy of the compounds is determined in comparison with control cells containing wild type NL4-3 virus alone (i.e. without any added compound) and is expressed as percentage of control. Then, the viral replication was increased for several compounds at the 50 and 100 μM concentrations with an absence of cytotoxic effects at the same concentrations (MTS test) (table 1).

Data set [2] has as its system HeLa-p4 cells. Description: Cell viability assay (MTS) on HeLa-p4 cells. The following applies: cell viability. As for the experimental part:
as §1, §2

In data set [3] the test system is J-Lat cells. Description: J-Lat cells, percentage of GFP-positive cells by cytometry. The following applies: 24 h, compound alone. The protocol: The J-Lat were grown in RPMI 1640 medium (Gibco-BRL) supplemented with 10% fetal bovine serum, 50 U/ml of penicillin, […] of streptomycin at 37 uC in a humidified 95% air/5% CO2 atmosphere. The cells were plated at 5.105 cells in a 96 well-plate. TNF ? was purchased from Immunosource. SAHA (suberoylanilide hydroxamic acid), prostratin (12-deoxyphorbol-13-acetate) and vorinostat were obtained from Sigma-Aldrich. The J-Lat cells were treated for 24 h with the different compounds alone. The cells were washed twice in PBS, re-suspended in PBS containing 4% paraformaldehyde and fixed for 30 min. Cells were next washed and re-suspended in PBS. The percentage of GFP-positive cells was measured with a LSRFortessa cytometer (Becton-Dickinson) using FACSDiva Version 6.1.3 according to the manufacturer's instructions.
The results for the J-Lat cells experiments are expressed as a percentage of the living fluorescent cells. In this model, some slight increase of viral production measured by fluorescence are quantified (table 1).

The structures appear in SMILES notation.

`N[C@@H]1C[C@H](N)CN(c2ccc3[nH]ccc3c2)C1` [AB-86, (3S,5R)-1-(1H-indol-5-yl)piperidine-3,5-diamine]: in data set [1], the activity at 50 µM came to 80% and the activity at 100 µM was determined as 66%. In data set [2], the “Hela-p4 MTS 50 μM” value amounted to 81 and the “Hela-p4 MTS 100 μM” value amounted to 74. In data set [3], the “J-lat 50 μM” value is given as 0.1 percentage of the living fluorescent cells and the “J-lat 100 μM” value is 2.6 percentage of the living fluorescent cells.

In the case of `N[C@H]1CC(OCc2cn(CC(=O)c3cc4ccc3CCc3ccc(cc3)CC4)nn2)[C@@H](N)C1` (stereo partly drawn) [RA 20], in data set [1], the activity at 50 µM stood at 167% and the activity at 100 µM worked out at 188%. Also, in data set [2], the “Hela-p4 MTS 50 μM” value is on record as 108 and the “Hela-p4 MTS 100 μM” value was found to be 97. For the same compound, in data set [3], the “J-lat 50 μM” value is 0.1 percentage of the living fluorescent cells and the “J-lat 100 μM” value is recorded as 1.1 percentage of the living fluorescent cells.

Turning to `Cc1cccc(CCN2C[C@H](N)C[C@H](N)C2)c1` [ECO01-030-C, 1-(3-methylphenethyl)piperidine-3,5-diamine], in data set [1], the activity at 50 µM stood at 125% and the activity at 100 µM came to 103%. Moreover, in data set [2], the “Hela-p4 MTS 50 μM” value was 84 and the “Hela-p4 MTS 100 μM” value was 82. For the same compound, in data set [3], the “J-lat 50 μM” value is 0.1 percentage of the living fluorescent cells and the “J-lat 100 μM” value is 0 percentage of the living fluorescent cells.

In the case of `COC(=O)N[C@@H]1C[C@H](NC(=O)OC)CN(CCc2cccc(OC)c2)C1` [ECO02-074-C, dimethyl (1-(3-methoxyphenethyl)piperidine-3,5-diyl)dicarbamate], in data set [1], the activity at 50 µM was determined as 139%, the activity at 100 µM is 186% and the activity at 200 µM was found to be 326%. In addition, in data set [2], the “Hela-p4 MTS 50 μM” value is 101, the “Hela-p4 MTS 100 μM” value is reported as 91 and the “Hela-p4 MTS 200 μM” value was 70. Moreover, in data set [3], the “J-lat 50 μM” value is listed as 0.4 percentage of the living fluorescent cells.

On to `CC(O)c1ccc(C(=O)NC(CCCCN)C(=O)N2C[C@H](N)C[C@H](N)C2)cc1` (stereo partly drawn) [AB289-1, N-(6-amino-1-(3,5-diaminopiperidin-1-yl)-1-oxohexan-2-yl)-4-(1-hydroxyethyl)benzamide], for which, in data set [1], the activity at 50 µM stood at 157%, the activity at 100 µM was determined as 236% and the activity at 200 µM is 294%. Also, in data set [2], the “Hela-p4 MTS 50 μM” value was found to be 103, the “Hela-p4 MTS 100 μM” value is reported as 100 and the “Hela-p4 MTS 200 μM” value worked out at 74. In addition, in data set [3], the “J-lat 50 μM” value is given as 0 percentage of the living fluorescent cells and the “J-lat 100 μM” value is on record as 0.8 percentage of the living fluorescent cells.

As for `N[C@@H]1C[C@H](N)CN(c2ccc(C(=O)N3CCCCCC3)cc2)C1` [ECO02-007-C, azepan-1-yl(4-(3,5-diaminopiperidin-1-yl)phenyl)methanone], in data set [1], the activity at 50 µM worked out at 87% and the activity at 100 µM was determined as 98%. Further, in data set [2], the “Hela-p4 MTS 50 μM” value was determined as 97 and the “Hela-p4 MTS 100 μM” value came to 98. Besides, in data set [3], the “J-lat 50 μM” value is recorded as 0.6 percentage of the living fluorescent cells.

Consider `COc1ccc2[nH]cc(CCN3C[C@H](N)C[C@H](N)C3)c2c1` [AB-84, (3S,5R)-1-(2-(5-methoxy-1H-indol-3-yl)ethyl)piperidine-3,5-diamine], for which, in data set [1], the activity at 50 µM is 112% and the activity at 100 µM came out at 75%. Moreover, in data set [2], the “Hela-p4 MTS 50 μM” value is recorded as 62 and the “Hela-p4 MTS 100 μM” value is 60. Further, in data set [3], the “J-lat 50 μM” value is on record as 0.1 percentage of the living fluorescent cells and the “J-lat 100 μM” value is 6.9 percentage of the living fluorescent cells.

As to `COc1ccc2c(CN3C[C@H](NC(=O)OC(C)(C)C)C[C@H](NC(=O)OC(C)(C)C)C3)cn(C)c2c1` [ECO02-060-C, di-tert-butyl (1-((6-methoxy-1-methyl-1H-indol-3-yl)methyl)piperidine-3,5-diyl)dicarbamate], in data set [1], the activity at 50 µM amounted to 178%, the activity at 100 µM turned out to be 221% and the activity at 200 µM was 217%. Also, in data set [2], the “Hela-p4 MTS 50 μM” value stood at 69, the “Hela-p4 MTS 100 μM” value is given as 54 and the “Hela-p4 MTS 200 μM” value came to 43. In addition, the “J-lat 50 μM” value in data set [3] is recorded as 0.6 percentage of the living fluorescent cells.

In the case of `N[C@@H]1C[C@H](N)CN(Cc2ccco2)C1` [ECO02-065-C], in data set [1], the activity at 50 µM is 108%, the activity at 100 µM is 125% and the activity at 200 µM came out at 205%. Also, in data set [2], the “Hela-p4 MTS 50 μM” value is given as 91, the “Hela-p4 MTS 100 μM” value amounted to 88 and the “Hela-p4 MTS 200 μM” value amounted to 68. Further, the “J-lat 50 μM” value in data set [3] is 0.5 percentage of the living fluorescent cells.

Consider `COc1ccc(CCN2C[C@H](N)C[C@H](N)C2)cc1OC` [AB-77, (3S,5R)-1-(3,4-dimethoxyphenethyl)piperidine-3,5-diamine], for which, in data set [1], the activity at 50 µM was 165%, the activity at 100 µM was 184% and the activity at 200 µM was 310%. For the same compound, in data set [2], the “Hela-p4 MTS 50 μM” value was 93, the “Hela-p4 MTS 100 μM” value is recorded as 97 and the “Hela-p4 MTS 200 μM” value was 69. In data set [3], the “J-lat 50 μM” value is listed as 0.1 percentage of the living fluorescent cells and the “J-lat 100 μM” value is on record as 0.8 percentage of the living fluorescent cells.

For `COc1ccc(CCN2C[C@H](N)C[C@H](N)C2)cc1` [ECO02-025-C, 1-(4-methoxyphenethyl)piperidine-3,5-diamine], in data set [1], the activity at 50 µM worked out at 90% and the activity at 100 µM is 123%. Besides, in data set [2], the “Hela-p4 MTS 50 μM” value is 112 and the “Hela-p4 MTS 100 μM” value came to 82. Also, in data set [3], the “J-lat 50 μM” value is listed as 0.3 percentage of the living fluorescent cells and the “J-lat 100 μM” value is recorded as 0.3 percentage of the living fluorescent cells.

`COc1ccc(CC(=O)N2C[C@H](N)C[C@H](N)C2)cc1OC` [AB287-F1, 1-((3S,5R)-3,5-diaminopiperidin-1-yl)-2-(3,4-dimethoxyphenyl)ethanone]: in data set [1], the activity at 50 µM stood at 137% and the activity at 100 µM was determined as 182%. In addition, in data set [2], the “Hela-p4 MTS 50 μM” value is reported as 103 and the “Hela-p4 MTS 100 μM” value is on record as 92. Besides, in data set [3], the “J-lat 50 μM” value was 0.1 percentage of the living fluorescent cells and the “J-lat 100 μM” value is 0.4 percentage of the living fluorescent cells.

Turning to `CS(=O)(=O)c1ccc(CCN2C[C@H](N)C[C@H](N)C2)cc1` [ECO01-039-C, 1-(4-(methylsulfonyl)phenethyl)piperidine-3,5-diamine], in data set [1], the activity at 50 µM was found to be 164% and the activity at 100 µM was determined as 168%. Besides, in data set [2], the “Hela-p4 MTS 50 μM” value is 95 and the “Hela-p4 MTS 100 μM” value came out at 108. Also, in data set [3], the “J-lat 50 μM” value is given as 0.1 percentage of the living fluorescent cells and the “J-lat 100 μM” value is listed as 0.1 percentage of the living fluorescent cells.

For the compound `N[C@@H]1C[C@H](N)CN(CCc2ccc3c(c2)OCO3)C1` [ECO01-033-C, 1-(2-(benzo[d][1,3]dioxol-5-yl)ethyl)piperidine-3,5-diamine], in data set [1], the activity at 50 µM came to 103% and the activity at 100 µM came to 146%. Besides, in data set [2], the “Hela-p4 MTS 50 μM” value worked out at 97 and the “Hela-p4 MTS 100 μM” value came to 94. Further, in data set [3], the “J-lat 50 μM” value is listed as 0.1 percentage of the living fluorescent cells and the “J-lat 100 μM” value was 0.2 percentage of the living fluorescent cells.

These data come from US20170183306A1, “CYCLIC COMPOUNDS HAVING A 1,3 DIAMINO-FUNCTIONALITY FOR USE IN THE TREATMENT OF HIV INFECTION” (Universite Paris Descartes, priority 2014, published 2017).
